This note sets out measurements from US20080089927A1, “Methods for Coacervation Induced Liposomal Encapsulation and Formulations Thereof” (priority 2006, published 2008).

Like-named read-outs stand apart in the source and are kept apart here.

The nature of series [1]: Ternary phase diagram amikacin sulfate-water-ethanol. The class given is physicochemical. The following applies: 3 parts amikacin sulfate 70 mg/mL in water mixed with 2 parts ethanol. The text has this: FIG. 3 depicts a ternary phase diagram of amikacin sulfate—water—ethanol system.
FIG. 3 depicts a ternary phase diagram for an amikacin sulfate—water—ethanol system. The two-phase area under the binodial curve is a zone where the system separates into two phases, a coacervate phase and an equilibrium phase. The area above the binodial curve is a zone where single liquid phase system of amikacin sulfate dissolved in water-ethanol mixture exists. When 3 parts of amikacin sulfate solution in water at 70 mg/mL (point 1) is mixed with 2 parts of ethanol, the resulting mixture has composition (point 2), which spontaneously separates into two phases: coacervate phase rich in amikacin (point C) and equilibrium phase pour in amikacin (point E). Coacervate phase comprises only about 4.5% of total volume and originally forms as small droplets suspended in equilibrium phase. If lipids are present in surrounding solution when coacervates are just formed, they can spontaneously form bilayers around those droplets. During manufacturing it is often desired to limit exposure of the product to high ethanol concentration. For examples, another 3 parts of saline or buffer can be added consequently to the mixture, which shifts composition to the single-phase zone (point 3). […]

The nature of series [2]: Miscibility of amikacin sulfate with ethanol/water. The class given is physicochemical. Conditions: ethanol/water mixture, aqueous with cosolvent or surfactant or cyclodextrin.
Excerpt: Right after the infusion step at flow rates 300/500, ethanol concentration in the mixture reaches 34%.
One possible solution to this problem is to add more water to the vessel with the lipid/amikacin mixture, thus reducing both ethanol and amikacin concentration.

Consider `NCC[C@H](O)C(=O)N[C@@H]1C[C@H](N)[C@@H](O[C@H]2O[C@H](CN)[C@@H](O)[C@H](O)[C@H]2O)[C@H](O)[C@H]1O[C@H]1O[C@H](CO)[C@@H](O)[C@H](N)[C@H]1O.O=S(=O)(O)O.O=S(=O)(O)O` [amikacin sulfate], for which the “coacervate phase, share of total volume” value in series [1] was “about 4.5%”.

Regarding `NCC[C@H](O)C(=O)N[C@@H]1C[C@H](N)[C@@H](O[C@H]2O[C@H](CN)[C@@H](O)[C@H](O)[C@H]2O)[C@H](O)[C@H]1O[C@H]1O[C@H](CO)[C@@H](O)[C@H](N)[C@H]1O` [amikacin], the solubility in series [2] (27% ethanol, depending on temperature, read-out: amikacin soluble concentration) is not below 15 mg/mL; in series [2] (34% ethanol, read-out: solubility limit), less than 15 mg/mL.
